Entries after “also recorded” stand apart in the source; their conditions may differ.
What was measured:
[1] = Stability of the solid placed open in the air under illumination, heating and humidity, HPLC analysis; assay type: physicochemical; details: for HPLC analysis result, 60° C.: heating 60° C.; for HPLC analysis result, RH 90%: humidity RH 90%; for HPLC analysis result, Light: illumination 4500 Lux
Method: The form I crystal of SHR1258 dimaleate prepared in Example 1 and the amorphous form of SHR1258 dimaleate prepared in Example 2 were placed open in the air to test the stability in various conditions including illumination (4500 Lux), heating (60° C.), and humidity (RH 90%).

[2] = Crystal form stability after grinding, heating and pressing, evaluated by X-ray diffraction and DSC; assay type: physicochemical; details: for Stability under grinding, pressure and heating: grinded, heated and pressed, X-ray diffraction and DSC
Text: The form I crystal of SHR1258 dimaleate prepared in Example 1 was grinded, heated and pressed, then evaluated by X-ray diffraction and DSC patterns.

| Compound | HPLC analysis result, 60° C. ([1]; day 0) [%] | HPLC analysis result, 60° C. ([1]; day 5) [%] | HPLC analysis result, 60° C. ([1]; day 10) [%] | HPLC analysis result, RH 90% ([1]; day 0) [%] | HPLC analysis result, RH 90% ([1]; day 5) [%] | HPLC analysis result, RH 90% ([1]; day 10) [%] | Stability under illumination, form I crystal compared with amorphous form [1] | HPLC analysis result, Light ([1]; day 0) [%] | HPLC analysis result, Light ([1]; day 5) [%] | HPLC analysis result, Light ([1]; day 10) [%] | Stability under high temperature and high moisture, compared with amorphous form ([1]; high temperature and high humidity, listed as form I crystal of SHR1258 dimaleate) | Stability under grinding, pressure and heating [2] | Stability under grinding, pressure and heating ([2]; listed as form I crystal of SHR1258 dimaleate) | Crystal (form after process) ([2]; grinding for 10 min under nitrogen atmosphere) | Crystal (form after process) ([2]; heating at 80° C. for 3 hours) | Crystal (form after process) ([2]; pressing into pieces) |
| --- | --- | --- | --- | --- | --- | --- | --- | --- | --- | --- | --- | --- | --- | --- | --- | --- |
| CCOc1cc2ncc(C#N)c(Nc3ccc(OCc4ccccn4)c(Cl)c3)c2cc1NC(=O)/C=C/[C@H]1CCCN1C [Amorphous Form] | 98.41 | 95.24 | 93.71 | 98.41 | 96.95 | 96.31 | similar | 98.41 | 96.96 | 96.91 | – | – | – | – | – | – |
| CCOc1cc2ncc(C#N)c(Nc3ccc(OCc4ccccn4)c(Cl)c3)c2cc1NC(=O)/C=C/[C@H]1CCCN1C [Form I Crystal, (R, E)-N-(4-(3-chloro-4-(pyridin-2-yl-methoxy)phenylamino)-3-cyano-7-ethoxyquinolin-6-yl)-3-(1-methylpyrrolidino-2-yl)acrylamide dimaleate] | 99.65 | 98.13 | 96.86 | 99.65 | 98.35 | 98.35 | similar | 99.65 | 98.20 | 97.91 | significantly better than the amorphous form; also recorded: more stable | good stability | stable | Form I | Form I | Form I |

From US9309226B2, “Crystalline form I of tyrosine kinase inhibitor dimaleate and preparation methods thereof” (Jiangsu Hengrui Medicine Co., Ltd., priority 2012, dated 2016)
